Results as given in article PMC9234671, “Molecular determinants of αVβ5 localization in flat clathrin lattices – role of αVβ5 in cell adhesion and proliferation” (Journal of Cell Science, 2022).

Key:
[1] = test system: integrin β5 localization in PA-JEB/β4 keratinocytes; test: Immunofluorescence: integrin β5 clustering in FAs/FCLs, PA-JEB/β4; assay type: cell-based, human
Excerpt: Fig. 3. Serine 759 and 762 are involved in regulating the localization of integrin β5. (A–C) Integrin β5 containing S759/762E or S759/762A mutations (A) were expressed in β5-deficient PA-JEB/β4 keratinocytes and the subcellular distribution of β5 was compared to β5-deficient keratinocytes expressing wild-type (WT) β5. Merged images show integrin β5 (green), vinculin (B) or clathrin (C) (red), actin (blue) and the cell nuclei (cyan). (D,E) Analysis of wild-type versus mutant integrin β5 clustering in FAs or FCLs. (F–I) PA-JEB/β4 keratinocytes were grown in 10% FCS-supplemented DMEM culture medium overnight and then treated with 5 nM calyculin A (Cal.A) or DMSO (vehicle control) for 30 min prior to fixation. Merged images show integrin β5 (green), vinculin (F) or clathrin (H) (red), actin (blue) and the cell nuclei (cyan), quantifications of β5 clustering in FAs or FCLs are shown in G,I. (J,K) Analysis of integrin β5 clustering in FAs or FCLs in PA-JEB keratinocytes after treatment with Cal.A. Representative confocal microscopy images are shown in Fig. S3. Scale bars: 20 μm. Data were obtained from three independent experiments. Total cells analyzed per condition: 109 (WT), 116 (S>E), 103 (S>A) (D), 81 (WT), 77 (S>E), 101 (S>A) (E), 126 and 123 (G), 111 and 101 (I), 106 and 102 (J), 115 and 109 (K). ****P<0.0001 (Mann–Whitney U-test). Box plots range from the 25th to 75th percentile; central line indicates the median; whiskers show smallest to largest value.
PA-JEB/β4 keratinocytes were seeded on glass coverslips and cultured in complete KGM medium for 24 h, and then treated with DMEM plus 10% FCS for 24 h. Other cell lines were seeded on glass coverslips and cultured in DMEM plus 10% FCS. Cells were fixed with 2% paraformaldehyde (PFA) for 10 min, permeabilized with 0.2% Triton X-100 for 5 min, and blocked with PBS containing 2% bovine serum albumin (BSA; Sigma) for at least 30 min. Next, cells were incubated with the primary antibodies for 1 h at room temperature. Cells were washed three times before incubation with the secondary antibodies for 1 h. Additionally, nuclei were stained with DAPI, and filamentous actin was visualized using Alexa Fluor 488 or 647-conjugated phalloidin (Invitrogen). After three washing steps with PBS, the coverslips were mounted onto glass slides in Mowiol. Images were obtained using a Leica TCS SP5 confocal microscope with a 63× (NA 1.4) oil objective.
Image analysis was performed using Fiji (ImageJ) ([Schindelin et al., 2012]; [Schneider et al., 2012]). To quantify integrin clustering in FAs (based on vinculin staining) versus FCLs (clathrin staining), background was subtracted in both channels using a bilateral filter and the region of interest (ROI) was selected at the cell periphery. Colocalization of integrin clusters and FAs or FCLs was determined using the Image Calculator (command ‘multiply’) on both channels and calculating the area of overlapping clusters as a percentage of the total integrin cluster area per cell using the Analyze Particle function.

[2] = test system: phosphorylated MLC in PA-JEB/β4 keratinocytes; test: Western blot: cell tension (phosphorylated myosin light chain); assay type: cell-based, human; conditions: nocodazole
Protocol: Proteins were separated by electrophoresis using a Bolt Novex 4–12% gradient Bis-Tris gels (Invitrogen) or 15% SDS-PAGE gels (made in-house), transferred to Immobilon-P transfer membranes (Millipore Corp) and blocked for at least 30 min in 2% BSA in TBST buffer (10 mM Tris-HCl pH 7.5, 150 mM NaCl and 0.3% Tween-20). Primary antibody (diluted 1:1000 in 2% BSA in TBST buffer) incubation took place overnight at 4°C. After washing twice with TBST and twice with TBS, blots were incubated for 1 h hour at room temperature with horseradish peroxidase-conjugated goat anti-mouse-IgG or goat anti-rabbit-IgG (diluted 1:3000 in 2% BSA in TBST buffer). After subsequent washing steps, the bound antibodies were detected by enhanced chemiluminescence using SuperSignal™ West Dura Extended Duration Substrate (ThermoFisher) or Clarity™ Western ECL Substrate (Bio-Rad) as described by the manufacturer. Signal intensities were quantified using ImageJ.
Fig. S4. (A) Representative western blots of phosphorylated myosin light chain (MLC) and GAPDH in PA-JEB/β4 keratinocytes treated with DMSO versus Nocodazole. […]
μm. Quantifications of β5 or β5 mutants clustering in FAs are shown in (C-E). […] Total cells analyzed per condition: 90 (WT, DMSO), 111 (WT, Noco.) (C), 40 (S>E, DMSO), 80 (S>E, Noco.) (D), 65 (S>A, DMSO), 82 (S>A, Noco.) (E). […]

COC(=O)Nc1nc2ccc(C(=O)c3cccs3)cc2[nH]1 [nocodazole]
localization of β5 in FCLs ([1]; nocodazole): inhibits the localization of β5 in FCLs | localization of β5 within FAs and FCLs ([1]; nocodazole versus DMSO, three independent experiments): significant shift in the localization of β5 from FCLs to FAs | localization of phospho-inhibitory β5 mutant ([1]; nocodazole, β5-deficient keratinocytes expressing β5-S759/762A): neither of their localizations were altered | localization of phospho-mimetic β5 mutant ([1]; nocodazole, β5-deficient keratinocytes expressing β5-S759/762E): neither of their localizations were altered | cell tension [2]: increased cell tension
